This note sets out measurements from US10934275B2, “IRE1 small molecule inhibitors” (Cornell University, priority 2016, dated 2021).

Assay [1] addresses T1, IRE1α (Homo sapiens, UniProt O75460). The assay is described as follows: IRE1α Endoribonuclease Nanoluciferase Assay (XBP1 luciferase reporter, 293T cells). The class given is cell-based. Also noted: endogenous in cells; host or cells: 293T cells. The settings on record: 293T cells transfected with XBP1 luciferase reporter plasmid, stressors +/- inhibitors. The procedure:
Compounds disclosed herein were assessed for disruption of IRE-1 signaling using a IRE1α Endoribonuclease Nanoluciferase Assay. Briefly, 2.5×10^6 293T cells were seeded in a 10 cm^2 tissue culture plate. About 24 hours later, the cells were transfected with Effectene. In a 15 mL Tube, the following was added: 2 μg XBP1 luciferase reporter plasmid (PGK-Luc2-P2A-XBP1u-Nanoluciferase-PEST); 300 μl EC buffer; and 16 μl Enhancer, followed by incubation at room temp for 5 minutes. Next, 60 μl Effectene (Qiagen 301427) was added, followed by incubation at room temperature for 10 minutes. 2.6 mL cDMEM media was added. Old media was aspirated from the cells, followed by addition of 7 mL fresh media. Full transfection mixture was added dropwise to cells. Cells were incubated for 6 hours, followed by tripsinization, centrifugation and resuspension in 11 mL media. 100 uL of cells were plated per a well in a 96 well plate. A day later, stressors of choice +/− inhibitors were added. To harvest, media was aspirated from cells completely, then 50 uL 1× passive lysis buffer (Promega: E1941) was added per well and put on shaker (300 rpm) for 30 minutes at room temperature. Cells were centrifuged, and 15 uL sample per well was added to a new, opaque white 384 well plate (Corning 3570). 15 uL OneGlo (nanoluciferase kit, Promega N1630) was added. Plates were spun down, placed on shaker (300 rpm) for 10 minutes. Plates were read on luminometer, 1000 ms integration time per well. 15 uL Stop and Glo (nanoluciferase kit) was added. Plates were spun down, placed on shaker (300 rpm) for 10 minutes. Plates were read on luminometer, 1000 ms second integration time per well. Recordings are provided below in Table 6.
Target sequence in this assay (O75460 19-977): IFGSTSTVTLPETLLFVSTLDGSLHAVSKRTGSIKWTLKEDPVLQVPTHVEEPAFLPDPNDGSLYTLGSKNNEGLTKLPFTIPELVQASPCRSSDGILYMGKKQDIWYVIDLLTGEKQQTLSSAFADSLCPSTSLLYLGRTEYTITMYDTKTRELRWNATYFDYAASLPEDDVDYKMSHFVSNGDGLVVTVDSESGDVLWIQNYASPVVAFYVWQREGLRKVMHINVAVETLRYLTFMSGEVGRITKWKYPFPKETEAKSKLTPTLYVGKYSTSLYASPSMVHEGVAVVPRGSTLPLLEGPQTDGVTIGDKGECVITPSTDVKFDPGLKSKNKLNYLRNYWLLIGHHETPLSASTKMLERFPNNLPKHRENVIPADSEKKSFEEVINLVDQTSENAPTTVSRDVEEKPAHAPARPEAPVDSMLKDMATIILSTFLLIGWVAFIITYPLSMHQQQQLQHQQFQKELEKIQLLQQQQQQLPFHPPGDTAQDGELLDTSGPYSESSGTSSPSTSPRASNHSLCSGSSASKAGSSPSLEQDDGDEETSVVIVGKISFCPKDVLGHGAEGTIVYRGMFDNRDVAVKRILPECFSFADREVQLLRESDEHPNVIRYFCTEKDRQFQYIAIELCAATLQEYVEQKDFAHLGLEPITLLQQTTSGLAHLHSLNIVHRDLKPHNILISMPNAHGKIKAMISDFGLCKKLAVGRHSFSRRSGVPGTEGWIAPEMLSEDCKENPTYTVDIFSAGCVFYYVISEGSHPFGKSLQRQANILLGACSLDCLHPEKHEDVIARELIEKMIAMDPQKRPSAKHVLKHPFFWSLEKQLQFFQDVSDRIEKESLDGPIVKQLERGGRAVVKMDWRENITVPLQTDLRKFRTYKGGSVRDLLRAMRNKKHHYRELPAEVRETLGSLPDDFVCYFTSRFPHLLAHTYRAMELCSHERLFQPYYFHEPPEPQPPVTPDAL

The target of assay [2] is T1, IRE1α. The assay is described as follows: In vitro FRET assay (XBP1 RNA probe cleavage by IRE1α). Type of assay: biochemical. The settings on record: SignalChem IRE1α protein 2 nM. Details: purchased SignalChem. The protocol:
In vitro FRET assay was performed to evaluate the ability of select compounds to inhibit IRE1, the results of which are summarized in Table 5. To perform the in vitro FRET assay, 1× complete assay buffer (CAB; […], 50 mM sodium citrate pH 7.15, 1 mM magnesium acetate, 0.02% tween 20) was used to dilute SignalChem IRE1α protein to a final concentration of 2 nM. Selected compounds were serially diluted with DMSO in a non-binding black 384-well plate for a total of 15 ul in each well. 2 ul of the serially diluted compound or DMSO control were then added to new wells containing 98 ul of 1×CAB, for a total volume of 100 ul, 10 ul of which were then transferred to wells of a new plate. 5 ul of the diluted IRE1α was then added to each well. 5 ul of a […] XBP1 RNA probe was then added to each well. Fluorescence was then read over 30 minutes in kinetic mode (485/515 nm).
Two RNA probes were used, XBP1 wildtype (SEQ ID NO: 2) which is able to be spliced by active IRE1α or XBP1 mutant (SEQ ID NO: 3) which is unable to be spliced. Each probe contained a 5′ 6-FAM modification and a 3′ IOWA Black FQ modification.
A second FRET assay was performed to assess ATP-mediated inhibition. In this case, compounds and IRE1α were prepared and combined as discussed above, with the addition of ATP up to 1 mM final concentration. This mixture was incubated at room temperature for 60 minutes and then 5 ul of 400 nM XBP1 wildtype or mutant RNA probe was added. Plates were then read over 30 minutes in kinetic mode (485/515 nm).
Target sequence in this assay (O75460 468-977 limits assumed): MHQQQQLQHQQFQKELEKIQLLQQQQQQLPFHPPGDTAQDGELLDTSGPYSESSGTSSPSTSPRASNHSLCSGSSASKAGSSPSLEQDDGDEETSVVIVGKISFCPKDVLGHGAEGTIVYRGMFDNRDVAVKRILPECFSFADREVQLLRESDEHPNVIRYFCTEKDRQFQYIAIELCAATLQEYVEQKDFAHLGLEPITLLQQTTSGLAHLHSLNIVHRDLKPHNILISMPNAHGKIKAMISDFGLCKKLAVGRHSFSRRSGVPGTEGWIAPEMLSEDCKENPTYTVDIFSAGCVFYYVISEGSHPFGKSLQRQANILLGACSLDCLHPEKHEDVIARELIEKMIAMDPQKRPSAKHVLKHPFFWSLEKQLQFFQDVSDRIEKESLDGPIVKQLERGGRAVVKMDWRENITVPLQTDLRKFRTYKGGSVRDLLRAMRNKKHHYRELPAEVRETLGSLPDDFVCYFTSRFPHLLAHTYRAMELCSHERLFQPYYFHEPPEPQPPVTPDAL

pEC50: −log10 of the molar value. Where a name gives a salt, the structure may show the parent alone. Bounds are passed on as bounds.

As usually defined, the pEC50 is the negative decadic logarithm of the EC50, by convention in mol/L. On to `CN1CCN(Cc2ccc(NC(=O)Nc3cc(-c4ccc5nc(NC6CCNCC6)ncc5c4)n(C)n3)cc2C(F)(F)F)CC1` [2; TFA], for which the pEC50 at IRE1α [1] was below 7.00; at IRE1α [2], at least 8.30.
On IRE1α [2], `CN1CCN(Cc2ccc(NC(=O)Nc3cc(-c4ccc5cc(NC6CCCCC6)ncc5c4)n(C)n3)cc2C(F)(F)F)CC1` [4; TFA] showed a pEC50 below 7.00.
With `CN1CCN(Cc2ccc(NC(=O)Nc3cc(-c4ccc5nc(NC6CCCCC6)ncc5c4)n(C)n3)cc2C(F)(F)F)CC1` [Compound 5, 1-(5-(2-(cyclohexylamino)quinazolin-6-yl)-1-methyl-1H-pyrazol-3-yl)-3-(4-((4-methylpiperazin-1-yl)methyl)-3-(trifluoromethyl)phenyl)urea], the negative-log EC50 (pEC50) on IRE1α [1] and on IRE1α [2] was below 7.00 throughout.
Turning to `Cc1cc(-c2cc(NC(=O)Nc3ccc(CN4CCN(C)CC4)c(C(F)(F)F)c3)nn2C)cc2cnc(N)nc12` [Compound 12, 1-(5-(2-amino-8-methylquinazolin-6-yl)-1-methyl-1H-pyrazol-3-yl)-3-(4-((4-methylpiperazin-1-yl)methyl)-3-(trifluoromethyl)phenyl)urea], the negative-log EC50 (pEC50) at IRE1α [1] was below 7.00; at IRE1α [2], 7.30 to 8.30.
For `CCc1cc(-c2cc(NC(=O)Nc3ccc(CN4CCN(C)CC4)c(C(F)(F)F)c3)nn2C)cc2cnc(N[C@H]3CC[C@H](N)CC3)nc12` [Compound 31, 1-(5-(2-(((1r,4r)-4-aminocyclohexyl)amino)-8-ethylquinazolin-6-yl)-1-methyl-1H-pyrazol-3-yl)-3-(4-((4-methylpiperazin-1-yl)methyl)-3-(trifluoromethyl)phenyl)urea] the same measures were at least 8.30 and at least 8.30.
